Patent US20240315992A1, “AMINOXY ACID-BASED ANTIBACTERIAL COMPOUNDS AND METHODS THEREOF” (The University of Hong Kong, priority 2023, published 2024)
Values after ≈ are worked out from the molar mass of the structure shown.

Key:
Type in all cases: cell-based
human red blood cell = assay: Hemolysis assay; conditions: up to the highest concentration 100 μM, 2 hours, 37° C.
Procedure: FIGS. 3A-3B are diagrams showing the hemolysis ability of compound 8 (FIG. 3A) and compound 35 (FIG. 3B) towards human red blood cell. % Hemolysis were mean±S.D of biological triplicates normalized to 0.1% triton X-100 as positive control.
Citrate-phosphate-dextrose (CPD) human whole blood was obtained from Hong Kong Red Cross. Whole blood was centrifuged in 1000 rpm for 10 minutes to remove the upper plasma layer. The remaining portion was washed by 1×PBS 3 times or until the upper PBS layer was transparent. The upper PBS layer was removed and the lower blood cell layer was diluted into 2% in PBS. 200 μL 2% blood in PBS was then added to round-bottom 96-well plate. Compounds were subsequently added to 96-well plate on 1% DMSO concentration. After incubation in 37° C. for 2 hours, the round-bottom 96-well plate was centrifuged in 1000 rpm for 10 minutes. 50 μL supernatant was transferred to a flat-bottom 96-well plate. Absorbance at 405 nm was then measured by Beckman Coulter DTX 880 Multimode Detector. Biological replicates were performed.

MSSA ATCC 29213 = assay: MIC by CLSI broth micro-dilution, MSSA ATCC 29213; conditions: Staphylococcus aureus, read-out: Minimum inhibitory concentration
Procedure: (§1) Aminoxy acids were synthesized by the standard peptide coupling procedures. Minimum inhibitory concentration was determined using CLSI broth micro-dilution method in 96-wells microtitre plates. Minimum inhibitory concentration is defined as the lowest concentration of the compound that inhibits visible growth of the bacteria. All experiments were performed three times. 24 compounds including aminoxy acid monomers and dipeptides have been identified to show toxicity against multidrug resistant Staphylococcus aureus Mu3 and summarized in Table 1. The minimum inhibitory concentration of compound 8 and compound 35 on other gram-positive bacteria was also evaluated and summarized in Table 2. […] As shown in FIGS. 3A-3B there are no observable hemolysis for compound 8 and compound 35 towards human red blood cell.
(§2) Bacteria were streaked from the glycerol stock into BHI agar and were incubated overnight. Single colony was picked for the overnight culture in cation-adjusted Mueller Hinton broth (CAMH), LB or BHI. The overnight culture was sub-cultured and regrew to exponential phase for the experiment.
(§3) MIC was determined by CLSI broth micro-dilution method in 96-wells microtitre plates. […] Optical density was recorded by DTX 880 multimode detector (Beckman Coulter, California, US). […]

MSSA ATCC 6538 = assay: MIC by CLSI broth micro-dilution, MSSA ATCC 6538; conditions: Staphylococcus aureus, read-out: Minimum inhibitory concentration
Procedure: as §1, §2, §3

[1] = system: Staphylococcus aureus ATCC 29213 persister; assay: Killing of Staphylococcus aureus persister; conditions: 10×MIC, persisters enriched with ciprofloxacin
Source text: FIG. 4 is a line graph showing the killing kinetics of the compound 8 and compound 35 towards Staphylococcus aureus persister compared to the conventional antibiotics. […] Data were representative of 3 independent experiments±S.D.
Persisters are the phenotypic variants of the normal bacteria with reduced metabolism. They highly tolerate to the conventional […]. Persisters was enriched by the addition of 100-fold minimum inhibitory concentration of bactericidal antibiotics ciprofloxacin to the stationary phase bacteria. After 24 hours' culture, ciprofloxacin was removed. Persisters were treated with compound 8, compound 35 or different conventional antibiotics.
S. aureus ATCC 29213 cells were sub-cultured from an overnight culture in CAMH 1:100 for 24 hours at 37° C. with 250 rpm shaking speed. Persisters were prepared by addition of ciprofloxacin hydrochloride (25 μg/mL, 100×MIC in Staphylococcus aureus ATCC 29213) and cultured for 24 hours at 37° C. with 250 rpm shaking speed. Persisters were washed by PBS (12,000×g, 3 minutes) and resuspended in PBS+1% CAMH medium (same volume as original culture). 1 mL portions were aliquoted into fresh culture tubes, and different antibiotics or DMSO (1% maximum concentration) were added, followed by incubation at 37° C. with 250 rpm shaking speed. […]

[2] = system: L. monocytogenes clinical strain; assay: MIC by CLSI broth micro-dilution, L. monocytogenes; conditions: Listeria monocytogenes, BHI medium, read-out: Minimum inhibitory concentration
Procedure: as §1, §2, §3

[3] = system: Staphylococcus aureus ATCC 29213; assay: Scanning and transmission electron microscopy; conditions: 24 hours treatment, SEM and TEM
Procedure: FIGS. 16A-16B are the images showing the compound 8 and compound 35 can induced the cell burst of Staphylococcus aureus. (FIG. 16A) Cells are imaged under scanning electron microscope. (FIG. 16B) Cells are imaged under transmission electron microscope.
Briefly, an overnight culture of Staphylococcus aureus ATCC 29213 was sub-cultured 1:100 in fresh CAMH and regrown for 2 hours. Then the bacteria were treated with compound or DMSO negative control for 24 hours. The bacterial pellet was resuspended in PBS and loaded on 0.22 μm filter membrane. The bacteria were fixed on the membrane by 2.5% glutaraldehyde for overnight at 4° C. The filter membranes were washed by PBS and subsequently dehydrated using ethanol as shown below.
The samples were submitted to HKU Electron Microscope Unit (EMU) for critical point drying, mounting and coating of the specimens. Samples were then observed using LEO 1530 FEG Scanning Electron Microscope.
Briefly, an overnight culture of Staphylococcus aureus ATCC 29213 was sub-cultured 1:100 in fresh CAMH and regrown for 2 hours. Then the bacteria were treated with compound or negative control DMSO for 24 hours. The bacterial pellet was then washed by PBS and fixed in cacodylate buffer (0.1 M sodium cacodylate-HCl buffer pH 7.4) for 1 hour at 4° C. […]

SMILES | hemolytic activity on human blood cell (human red blood cell) | MIC (MSSA ATCC 29213) [µM] | MIC (MSSA ATCC 6538) [µM] | bactericidal effect on Staphylococcus aureus persister [1] | MIC [2] [µM] | cell morphology under electron microscope [3]
CC(C)C[C@H](ONC(=O)[C@@H](COCc1ccccc1)ONC(=O)c1cc(C(F)(F)F)cc(C(F)(F)F)c1)C(=O)Nc1ccc2c(c1)OC(F)(F)O2 [Compound 35] | didn't have observable hemolytic activity | 1.56 (≈ 1.15 µg/mL) | 1.56 (≈ 1.15 µg/mL) | can eradicate the Staphylococcus aureus persister | 0.78 (≈ 0.574 µg/mL) | severe cell abnormality including cell burst and irregular shape of cell wall
CC(C)C[C@H](ONC(=O)[C@@H](COCc1ccccc1)ONC(=O)c1cc(C(F)(F)F)cc(C(F)(F)F)c1)C(=O)Nc1ccccc1 [Compound 8] | didn't have observable hemolytic activity | 3.13 (≈ 2.05 µg/mL) | 3.13 (≈ 2.05 µg/mL) | can eradicate the Staphylococcus aureus persister | 6.25 (≈ 4.1 µg/mL) | severe cell abnormality including cell burst and irregular shape of cell wall
